Results as given in US20210137903A1, “ANTI-ANDROGENS FOR THE TREATMENT OF PROSTRATE CANCER” (priority 2019, published 2021).

How the values were obtained:
[1] = Example 1 relative bioavailability study: pharmacokinetics, whole tablets vs mixture in applesauce; assay type: in vivo, human; settings: n=10
Protocol: This was a randomized, open-label, balanced, single dose, two-treatment, two-period, two-sequence, crossover relative bioavailability study.
Healthy male subjects were randomly assigned to 1 of 2 treatment sequences by following the randomization scheme as given below.
All study drug were taken in the morning on Day 1 of each treatment period. […] For Treatment B, the study drug-applesauce mixture was prepared by a pharmaceutical technician or pharmacist. An additional 50 mL of water for either treatments was allowed if necessary. Study drug of Treatment B was be ingested within 5 minutes. Treatment A was be swallowed whole and not chewed, divided, dissolved, or crushed.
Additional PK parameters could be included if deemed appropriate.
Pharmacokinetic analysis was performed by or under the responsibility of the sponsor.
Pharmacokinetic and statistical analysis were done using Phoenix™ WinNonlin® (Tripos L.P.). Noncompartmental analysis was applied for the pharmacokinetic analysis. Furthermore, Microsoft Excel® (Microsoft, Redmond, Wash., United States), and SAS (SAS Institute Inc., Cary, N.C., US) were used.
If one of the PK parameters could not be determined for a given subject in 1 or more periods, the subject's data was not included in the statistical analysis of that particular PK parameter. The analysis was performed on log-transformed PK parameters.
A mixed effect model that includes treatment, period, and treatment sequence as fixed effects, and subject as a random effect, was used to estimate the least squares means and intrasubject variance. Using these estimated least squares means and intrasubject variance, the point estimate and 90% CIs for the difference in means on a log scale between test and reference were constructed. The limits of the CIs was retransformed using antilogarithms to obtain 90% CIs for the geometric mean ratios of Cmax and AUC0-168 h of the test to reference formulation. A similar analysis was conducted for AUC0-72 h for supplemental purpose.

[2] = Example 1 relative bioavailability study: safety evaluations; assay type: in vivo, human
Protocol: Safety: Safety was evaluated throughout the study by means of adverse events (AEs), laboratory safety (hematology and serum chemistry), electrocardiograms (ECGs), vital signs (blood pressure, pulse, respiratory rate, and body temperature), and physical examinations (see the Time and Events Schedule in FIG. 1 for details).
Safety: Baseline for all laboratory evaluations, 12-lead ECG measurements, and vital signs were defined as the last evaluation done before the first study drug administration. Safety was evaluated by examining the incidence and type of adverse events, and changes in clinical laboratory test values, physical examination results, 12-lead ECGs, and vital sign measurements from the screening phase through study completion, including the washout intervals and the End-of-Study visit.
All subjects who were randomly assigned to treatment and received at least one dose of the study drug were included in the safety analysis.
The verbatim terms used in the CRF by investigators to identify adverse events was coded using the Medical Dictionary for Regulatory Activities (MedDRA). All reported adverse events with onset during the treatment phase (ie, treatment-emergent adverse events, and adverse events that have worsened since baseline) were included in the analysis. For each adverse event, the percentage of subjects who experience at least 1 occurrence of the given event was summarized by treatment group.
The severity assessment for an adverse event/serious adverse event was completed using the NCI-CTCAE Version 5.0. Any adverse event/serious adverse event not listed in the NCI-CTCAE was graded by the investigator using the standard grades as follows: […]

Structure (SMILES): CNC(=O)c1ccc(N2C(=S)N(c3cnc(C#N)c(C(F)(F)F)c3)C(=O)C23CCC3)cc1F [apalutamide, 4-[7-(6-cyano-5-trifluoromethylpyridin-3-yl)-8-oxo-6-thioxo-5,7-diazaspiro[3.4]oct-5-yl]-2-fluoro-N-methylbenzamide]
- AUC0-72h Intra-subject CV(%) [1]: 3.7%
- AUC0-168h Intra-subject CV(%) [1]: 2.7%
- Cmax Intra-subject CV(%) [1]: 13.8%
- deaths or serious TEAEs ([2]; in vivo): no deaths or serious TEAEs
- overall safety and tolerability of 240 mg as whole tablets and as dispersed tablets in applesauce ([2]; in vivo): safe and generally well tolerated
- subjects with QTcB or QTcF increase of >60 ms from baseline ([2]; in vivo): No subjects
- subjects with QTcB or QTcF values of >480 ms ([2]; in vivo): No subjects
- AE leading to treatment discontinuation ([2]; n (%)): 1 (8.3%)
- AE leading to treatment discontinuation: >=Grade 3 ([2]; n (%)): 0
- AE leading to treatment discontinuation: Drug-related to Treatment A ([2]; n (%)): 0
- AE leading to treatment discontinuation: Drug-related to Treatment B ([2]; n (%)): 1 (8.3%)
- AE leading to treatment discontinuation: Grade 1 ([2]; n (%)): 1 (8.3%)
- AE leading to treatment discontinuation: Grade 2 ([2]; n (%)): 0
- Serious TEAE: >=Grade 3 ([2]; n (%)): 0
- Serious TEAE: Drug-related to Treatment A ([2]; n (%)): 0
- Serious TEAE: Drug-related to Treatment B ([2]; n (%)): 0
- Serious TEAE: Grade 1 ([2]; n (%)): 0
- Serious TEAE: Grade 2 ([2]; n (%)): 0
- Serious Treatment Emergent Adverse Events ([2]; n (%)): 0
- Treatment Emergent Adverse Events: Drug-related to Treatment A ([2]; n (%)): 4 (33.3%)
- Treatment Emergent Adverse Events: Drug-related to Treatment B ([2]; n (%)): 4 (33.3%)
- subjects with TEAE gynecomastia ([2]; n (%)): 3 (25.0%)
- subjects with sexual side effects ([2]; n (%)): 3 (25.0%)
- Treatment Emergent Adverse Events, subjects ([2]; n (%) of subjects treated): 5 (41.7%)
- Treatment Emergent Adverse Events: >=Grade 3 ([2]; worst grade, n (%)): 0
- Treatment Emergent Adverse Events: Grade 1 ([2]; worst grade, n (%)): 4 (33.3%)
- Treatment Emergent Adverse Events: Grade 2 ([2]; worst grade, n (%)): 1 (8.3%)
